# Results as given in article PMC10254444, “Targeting Myeloperoxidase Activity and Neutrophil ROS Production to Modulate Redox Process: Effect of Ellagic Acid and Analogues” (Molecules, 2023).
# Molecular target: T1, Horseradish peroxidase (HRP) (Armoracia rusticana, UniProt P00433)
# T1 construct: purchased Merck (Darmstadt, Germany)
# T1 sequence (P00433 31-338 limits assumed): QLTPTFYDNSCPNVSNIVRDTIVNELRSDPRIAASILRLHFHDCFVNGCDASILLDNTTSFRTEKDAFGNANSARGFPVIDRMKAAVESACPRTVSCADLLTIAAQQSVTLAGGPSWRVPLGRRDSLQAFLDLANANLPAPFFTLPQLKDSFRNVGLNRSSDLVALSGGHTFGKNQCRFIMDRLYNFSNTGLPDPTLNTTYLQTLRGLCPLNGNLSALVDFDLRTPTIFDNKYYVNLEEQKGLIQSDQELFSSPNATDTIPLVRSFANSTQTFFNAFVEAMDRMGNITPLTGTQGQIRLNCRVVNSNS
# Assay: HRP-catalyzed oxidation of L012 (chemiluminescence)
# Format: biochemical
# Settings: not given
# Method: […] (HRP) reacts with hydrogen peroxide (H2O2), yielding “compound I (HRP^+.-Fe (IV=O))”, which is a reactive intermediate of HRP that is able to oxidize any potential reducing agent. Briefly, 2 μL of compound or reference molecule (ellagic acid) were incubated in phosphate buffer at pH 7.4 (153 μL, 50 mM) containing 5 μL HRP (100 µg/L), 20 μL L0-12 (10^−3 M), and 20 μL H2O2 (1 mM), and the chemiluminescence was immediately measured using a Fluoroskan Ascent 96-plate reader (ThermoLabsystem, Finland) at 37 °C for 30 min [32, 34]. The analysis was conducted in a 96-well microtiter plate. All the assays were performed in triplicate and repeated at least twice (N = 2; n = 6). The relative activity in terms of inhibition percentage of the tested compound or reference (ellagic acid) was compared to a control in the presence of DMSO taken as a solvent. The inhibition percentage was calculated using a similar formula (Equation (1)) as described above.
HRP inhibiting activity (in words),IC50 [µM],Compound
reduced antioxidant effect,5.81 ± 0.49,"O=C(Nc1ccc(OC(=O)c2cc(O)c(O)c(O)c2)cc1)c1cc(O)c(O)c(O)c1 [compound 7, 4-(3,4,5-trihydroxybenzamido)phenyl 3,4,5-trihydroxybenzoate]"
–,1.48 ± 1.17,O=C(OCCCCOC(=O)c1cc(O)c(O)c(O)c1)c1cc(O)c(O)c(O)c1 [compound 8]
–,1.81 ± 0.18,"O=C(NCCCOC(=O)c1cc(O)c(O)c(O)c1)c1cc(O)c(O)c(O)c1 [compound 9, 3-(3,4,5-trihydroxybenzamido) propyl 3,4,5-trihydroxybenzoate]"
–,1.02 ± 0.09,"O=C(Nc1cccc(OC(=O)c2cc(O)c(O)c(O)c2)c1)c1cc(O)c(O)c(O)c1 [compound 10, 3-(3,4,5-trihydroxybenzamido)phenyl 3,4,5-trihydroxybenzoate]"
very good inhibition,3.06 ± 0.07,O=C(NCCCNC(=O)c1cc(O)c(O)c(O)c1)c1cc(O)c(O)c(O)c1 [compound 12]
–,5.46 ± 0.01,"O=C(OCCCOC(=O)c1cc(O)c(O)c(O)c1)c1ccccc1 [compound 13, 3-(benzoyloxy)propyl 3,4,5-trihydroxybenzoate]"

# Molecular target: T2, human myeloperoxidase (MPO) (Homo sapiens, UniProt P05164)
# T2 construct: purchased Calbiochem Millipore
# T2 sequence (P05164 49-745): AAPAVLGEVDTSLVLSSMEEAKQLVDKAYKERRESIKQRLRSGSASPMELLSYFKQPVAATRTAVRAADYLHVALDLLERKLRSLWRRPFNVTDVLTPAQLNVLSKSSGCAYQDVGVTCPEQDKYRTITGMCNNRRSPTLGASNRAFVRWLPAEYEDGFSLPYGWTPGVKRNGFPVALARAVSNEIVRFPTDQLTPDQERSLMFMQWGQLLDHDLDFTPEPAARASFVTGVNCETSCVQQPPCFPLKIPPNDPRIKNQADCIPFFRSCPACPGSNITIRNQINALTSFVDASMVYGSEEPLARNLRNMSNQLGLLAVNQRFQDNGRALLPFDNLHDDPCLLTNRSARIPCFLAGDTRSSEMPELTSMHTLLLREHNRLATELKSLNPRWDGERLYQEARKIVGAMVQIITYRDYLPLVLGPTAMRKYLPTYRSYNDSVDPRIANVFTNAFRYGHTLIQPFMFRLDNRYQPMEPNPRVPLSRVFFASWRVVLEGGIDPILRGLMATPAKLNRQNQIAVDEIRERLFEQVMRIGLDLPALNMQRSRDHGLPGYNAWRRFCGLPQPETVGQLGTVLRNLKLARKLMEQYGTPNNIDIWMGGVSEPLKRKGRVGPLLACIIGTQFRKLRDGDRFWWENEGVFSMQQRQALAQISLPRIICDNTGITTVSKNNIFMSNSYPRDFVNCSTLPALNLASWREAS
# Assay: MPO peroxidase activity, classical assay (Amplex Red)
# Format: biochemical
# Settings: concentration range 0.01 to 10 µM
# Method: (§1) Measurement of the peroxidase activity of MPO was performed by a classical enzymatic assay and by SIEFED assay as described by Nyssen et al.. The MPO solution was prepared with purified human MPO in dilution buffer (PBS 20 mM at pH 7.4 with 5 g/L BSA and 0.1% Tween-20). The solutions of EA or analogue, at final concentrations ranging from 10^−8 M to 10^−5 M, were incubated for 10 min with human MPO at a final concentration of 5 mU/mL before further use. The revelation of MPO activity was performed by monitoring the enzyme-catalyzed oxidation of Amplex Red in the presence of H2O2 (10 μM) and nitrite (4.5 mM) in phosphate buffer at pH 7.4.
# After incubation, mixtures containing 100 μL of EA/analogue or vehicle (DMSO) and MPO were loaded into wells of microtiter plates (transparent), and the peroxidase activity was measured by adding 10 μL sodium nitrite solution (4.5 mM, final concentration) and 100 μL of the reactional solution containing 10 µM H2O2 and 40 µM Amplex® Red (AR) in phosphate buffer (50 mM) at pH 7.4. The oxidation of AR into the fluorescent resorufin adduct (λexcitation = 544 nm; λemission = 590 nm) was monitored for 30 min at 37 °C with a fluorescent plate reader (Fluoroskan Ascent, Fisher Scientific, Hampton, NH, USA). To eliminate the possibility of the artifact reactions that might arise from MPO activity or its natural substrate (H2O2), the direct reaction of ellagic acid or an analogue with H2O2 was performed in phosphate buffer (PBS) without the addition of human MPO.
row,MPO inhibition (classical assay) [%],Compound
1,94,"O=C(Nc1ccc(OC(=O)c2cc(O)c(O)c(O)c2)cc1)c1cc(O)c(O)c(O)c1 [compound 7, 4-(3,4,5-trihydroxybenzamido)phenyl 3,4,5-trihydroxybenzoate]"

# System: not listed separately
# Assay: DPPH radical scavenging assay
# Settings: not given
# Method: The DPPH assay was performed according to the method developed by Brand-Williams et al., though slightly modified. A solution of 1 mM DPPH in absolute methanol was stirred for 40 min. Absorbance of the solution was adjusted to 0.650 ± 0.020 at 517 nm using fresh absolute methanol. For replicates, the DPPH assay was performed using a microplate reader. For this, 2 µL of EA taken as a standard or sample (EA analogue) were mixed with 198 µL of DPPH solution and incubated for 30 min in the dark covered with aluminum foil. When reacting with an antioxidant, the DPPH• radical is converted into DPPH, and its color changes from purple to yellow. The antioxidant effect may be easily evaluated by observing the decrease in visible absorption. The absorbance decrease was monitored at 510 nm for 30 min with a Multiskan Ascent 96-plate reader (ThermoLabsystem, Finland). A control consisted of 2 µL of DMSO in 198 µL of DPPH solution. A similar formula (Equation (1)) was applied to determine the DPPH radical-scavenging activity.
row,IC50 [µM],Compound
1,3.14 ± 0.72,"O=C(Nc1ccc(OC(=O)c2cc(O)c(O)c(O)c2)cc1)c1cc(O)c(O)c(O)c1 [compound 7, 4-(3,4,5-trihydroxybenzamido)phenyl 3,4,5-trihydroxybenzoate]"
2,5.96 ± 0.06,O=C(OCCCCOC(=O)c1cc(O)c(O)c(O)c1)c1cc(O)c(O)c(O)c1 [compound 8]
3,5.82 ± 0.35,"O=C(NCCCOC(=O)c1cc(O)c(O)c(O)c1)c1cc(O)c(O)c(O)c1 [compound 9, 3-(3,4,5-trihydroxybenzamido) propyl 3,4,5-trihydroxybenzoate]"
4,5.27 ± 0.29,"O=C(Nc1cccc(OC(=O)c2cc(O)c(O)c(O)c2)c1)c1cc(O)c(O)c(O)c1 [compound 10, 3-(3,4,5-trihydroxybenzamido)phenyl 3,4,5-trihydroxybenzoate]"
5,3.7 ± 0.45,O=C(NCCCNC(=O)c1cc(O)c(O)c(O)c1)c1cc(O)c(O)c(O)c1 [compound 12]
6,4.91 ± 0.26,"O=C(OCCCOC(=O)c1cc(O)c(O)c(O)c1)c1ccccc1 [compound 13, 3-(benzoyloxy)propyl 3,4,5-trihydroxybenzoate]"

# System: not listed separately
# Assay: ABTS radical cation assay
# Settings: not given
# Method: The ABTS assay was based on the method described by Re et al.. For the generation of ABTS^•+ radicals, sodium persulfate (2.45 mM) aqueous solution was mixed with ABTS (7 mM) and incubated overnight in the dark to obtain a dark-colored solution. Stock solution of ABTS^•+ was then diluted by adding pure methanol (100%) to obtain an absorbance of 0.70 (±0.02) at 734 nm at 30 °C. To obtain more repetition, the ABTS assay was performed using a microplate reader (ThermoLabsystem, Finland). An aliquot of 2 µL of the tested compound (EA or analogue) was added to 198 µL of ABTS^•+, and the decrease in absorbance was monitored at 740 nm after 30 min [32]. During this reaction, the blue-green ABTS radical cation is converted back into its colorless neutral form in the presence of the potential antioxidant molecule. A control consisted of 2 µL of DMSO in 198 µL of ABTS^•+ solution. The reducing capacity was determined according to the formula:% inhibition = (Acontrol − ASample) × 100/AControl(1)
row,IC50 [µM],Compound
1,4.68 ± 0.13,"O=C(Nc1ccc(OC(=O)c2cc(O)c(O)c(O)c2)cc1)c1cc(O)c(O)c(O)c1 [compound 7, 4-(3,4,5-trihydroxybenzamido)phenyl 3,4,5-trihydroxybenzoate]"
2,6.97 ± 0.04,O=C(OCCCCOC(=O)c1cc(O)c(O)c(O)c1)c1cc(O)c(O)c(O)c1 [compound 8]
3,6.34 ± 0.39,"O=C(NCCCOC(=O)c1cc(O)c(O)c(O)c1)c1cc(O)c(O)c(O)c1 [compound 9, 3-(3,4,5-trihydroxybenzamido) propyl 3,4,5-trihydroxybenzoate]"
4,6.22 ± 0.16,"O=C(Nc1cccc(OC(=O)c2cc(O)c(O)c(O)c2)c1)c1cc(O)c(O)c(O)c1 [compound 10, 3-(3,4,5-trihydroxybenzamido)phenyl 3,4,5-trihydroxybenzoate]"
5,5.86 ± 0.18,O=C(NCCCNC(=O)c1cc(O)c(O)c(O)c1)c1cc(O)c(O)c(O)c1 [compound 12]
6,6 ± 0.31,"O=C(OCCCOC(=O)c1cc(O)c(O)c(O)c1)c1ccccc1 [compound 13, 3-(benzoyloxy)propyl 3,4,5-trihydroxybenzoate]"

# Molecular target: T2, human myeloperoxidase (MPO)
# Assay: MPO activity by SIEFED assay
# Format: biochemical
# Settings: not given
# Method: as §1
# Samples with MPO and various concentrations of […] were prepared and incubated as with the classical assay. An amount of 100 μL of each mixture (MPO alone or MPO + EA/DMSO) was then loaded into the wells of a SIEFED microtiter plate coated with rabbit polyclonal antibodies (3 μg/mL) against human MPO and incubated for 2 h at 37 °C in darkness. After washing up the wells, the activity of the enzyme captured by the antibodies was measured by adding 10 μL sodium nitrite solution (4.5 mM, final concentration) and 100 μL of a reactional solution containing 10 μM H2O2 and 40 μM Amplex® in phosphate buffer (50 mM) at pH 7.4. The oxidation of Amplex® Red into the fluorescent adduct resorufin (λexcitation = 544 nm; λemission = 590 nm) was monitored for 30 min at 37 °C with a fluorescent plate reader (Fluoroskan Ascent, Fisher Scientific). As for the MPO direct assay, a control assay set as the relative value of MPO activity was performed with purified MPO in the presence of PBS instead of the samples of EA or analogue dissolved in DMSO. In this SIEFED assay, MPO was bonded by the antibodies into the wells, and EA/analogue was discarded in the washing step before starting the measurement of the enzymatic activity. For both MPO assays, the inhibition percentage was calculated using a similar formula (Equation (1)) as described above.
row,"MPO activity, SIEFED assay (in words)",Compound
1,superior to ellagic acid,"O=C(Nc1ccc(OC(=O)c2cc(O)c(O)c(O)c2)cc1)c1cc(O)c(O)c(O)c1 [compound 7, 4-(3,4,5-trihydroxybenzamido)phenyl 3,4,5-trihydroxybenzoate]"
2,superior to ellagic acid,"O=C(Nc1cccc(OC(=O)c2cc(O)c(O)c(O)c2)c1)c1cc(O)c(O)c(O)c1 [compound 10, 3-(3,4,5-trihydroxybenzamido)phenyl 3,4,5-trihydroxybenzoate]"
